Reference: ChEMBL document CHEMBL1131444, “The 16,17-double bond is needed for irreversible inhibition of human cytochrome p45017alpha by abiraterone (17-(3-pyridyl)androsta-5, 16-dien-3beta-ol) and related steroidal inhibitors” (J Med Chem, 1998)

Target: T1, Steroid 17-alpha-hydroxylase/17,20 lyase (Homo sapiens, UniProt P05093)
T1 sequence (P05093 whole entry): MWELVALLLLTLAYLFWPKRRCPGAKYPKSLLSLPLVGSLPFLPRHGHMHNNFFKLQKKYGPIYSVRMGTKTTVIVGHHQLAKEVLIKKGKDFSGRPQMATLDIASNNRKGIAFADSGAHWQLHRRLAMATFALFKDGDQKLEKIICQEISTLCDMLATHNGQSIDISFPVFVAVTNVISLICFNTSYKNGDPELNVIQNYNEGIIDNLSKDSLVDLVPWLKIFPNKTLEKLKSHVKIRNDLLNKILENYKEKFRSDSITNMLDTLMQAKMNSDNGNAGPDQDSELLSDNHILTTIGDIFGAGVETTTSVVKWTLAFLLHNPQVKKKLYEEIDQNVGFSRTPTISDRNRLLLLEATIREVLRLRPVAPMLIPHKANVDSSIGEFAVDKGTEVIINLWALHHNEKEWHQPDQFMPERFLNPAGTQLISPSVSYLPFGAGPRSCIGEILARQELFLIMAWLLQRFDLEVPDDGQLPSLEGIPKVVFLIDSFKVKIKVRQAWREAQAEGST
Assay: Inhibition of human progesterone 17-alpha-hydroxylase.

Row | SMILES | IC50
1 | C[C@]12CC[C@H](O)C[C@@H]1CC[C@@H]1[C@@H]2CC[C@@]2(C)[C@H]1C[C@H]1O[C@]12c1cccnc1 | 0.26 µM
2 | C[C@]12CC[C@H](O)C[C@@H]1CC[C@@H]1[C@@H]2CC[C@]2(C)[C@@H](c3cccnc3)CC[C@@H]12 | 0.074 µM
3 | C[C@]12CC[C@H](O)C[C@@H]1CC[C@@H]1[C@@H]2CC[C@]2(C)C(c3cccnc3)CC[C@@H]12 (stereo not given in full) | 0.005 µM
4 | C[C@]12CCC(=O)C=C1CCC1C2CC[C@]2(C)C(c3cccnc3)=CCC12 (stereo not given in full) | 0.003 µM
5 | C[C@]12CCC3C(CC=C4C[C@@H](O)CC[C@@]43C)C1CCC2c1ccncc1 (single isomer, unassigned) | 0.027 µM
